Source: ChEMBL document CHEMBL4665748, “Heimiomycins A-C and Calamenens from the African Basidiomycete Heimiomyces sp” (J Nat Prod, 2020)
pIC50: −log10 of the molar value. ≈ marks a conversion by molar mass, not a printed value. Calls of active or inactive are those of the source. The rule behind the calls is not given here.

Assays:
[1] = tested on: Mycolicibacterium smegmatis; assay: Antimicrobial activity against Mycobacterium smegmatis DSM44200 by serial dilution method; type: functional
L929 = assay: Cytotoxicity against mouse L929 cells assessed as reduction in cell viability by MTT assay; type: functional, cell-based; details: for pIC50: Mus musculus, L929, read-out: IC50
Bacillus subtilis = assay: Antimicrobial activity against Bacillus subtilis DSM10 by serial dilution method; type: functional
KB 3-1 = assay: Cytotoxicity against human KB3.1 cells assessed as reduction in cell viability by MTT assay; type: functional, cell-based
Staphylococcus aureus = assay: Antimicrobial activity against Staphylococcus aureus DSM346 by serial dilution method; type: functional
Candida albicans = assay: Antimicrobial activity against Candida albicans DSM1665 by serial dilution method; type: functional
Micrococcus luteus = assay: Antimicrobial activity against Micrococcus luteus DSM1790 by serial dilution method; type: functional
Mucor hiemalis = assay: Antimicrobial activity against Mucor hiemalis DSM2656 by serial dilution method; type: functional
Wickerhamomyces anomalus = assay: Antimicrobial activity against Pichia anomala DSM6766 by serial dilution method; type: functional

Molecule: COc1c(O)c2c(c3cnc4c(c13)C(=O)C=C(C)C4=O)[C@@H](C(C)C)CC[C@@H]2C
- MIC [1]: inactive
- IC50 (L929; l929): Not Active
- MIC (Bacillus subtilis): 6.3 µg/mL (≈ 16.6 µM)
- IC50 (KB 3-1): Not Active
- MIC (Staphylococcus aureus): 50 µg/mL (≈ 132 µM)
- MIC (Candida albicans): 100 µg/mL (≈ 264 µM)
- MIC (Micrococcus luteus): 6.3 µg/mL (≈ 16.6 µM)
- MIC (Mucor hiemalis): 50 µg/mL (≈ 132 µM)
- MIC (Wickerhamomyces anomalus; Hansenula anomala): 100 µg/mL (≈ 264 µM)

Molecule: CC1=CC(=O)C(c2c(C=O)c(O)c(O)c3c2[C@@H](C(C)C)CC[C@@H]3C)=C(O)C1=O
- MIC [1]: 100 µg/mL (≈ 260 µM)
- pIC50 (L929): 5.26
- MIC (Bacillus subtilis): 12.5 µg/mL (≈ 32.5 µM)
- IC50 (KB 3-1): Not Active
- MIC (Staphylococcus aureus): 50 µg/mL (≈ 130 µM)
- MIC (Candida albicans): 100 µg/mL (≈ 260 µM)
- MIC (Micrococcus luteus): 3.1 µg/mL (≈ 8.06 µM)
- MIC (Mucor hiemalis): 25 µg/mL (≈ 65 µM)
- MIC (Wickerhamomyces anomalus; Hansenula anomala): 100 µg/mL (≈ 260 µM)

Molecule: NC[C@H]1O[C@H](O[C@H]2[C@H](O)[C@@H](O[C@H]3O[C@H](CO)[C@@H](O)[C@H](N)[C@H]3O)[C@H](N)C[C@@H]2N)[C@H](O)[C@@H](O)[C@@H]1O [KANAMYCIN]
- MIC [1]: 0.6 µg/mL (≈ 1.24 µM)

Molecule: CN(C)[C@@H]1C(O)=C(C(N)=O)C(=O)[C@@]2(O)C(O)=C3C(=O)c4c(O)cccc4[C@@](C)(O)[C@H]3[C@H](O)[C@@H]12 [OXYTETRACYCLINE]
- MIC (Bacillus subtilis): 9.2 µg/mL (≈ 20 µM)
- MIC (Micrococcus luteus): 0.3 µg/mL (≈ 0.652 µM)

Molecule: GENTAMICIN
- MIC (Staphylococcus aureus): 9.2 µg/mL

Molecule: C/C(=C\c1csc(C)n1)[C@@H]1C[C@@H]2O[C@]2(C)CCC[C@H](C)[C@H](O)[C@@H](C)C(=O)C(C)(C)[C@@H](O)CC(=O)O1 [PATUPILONE]
- pIC50 (L929): 8.59

Molecule: NYSTATIN
- MIC (Candida albicans): 9.2 µg/mL
- MIC (Mucor hiemalis): 9.2 µg/mL
- MIC (Wickerhamomyces anomalus): 4.6 µg/mL
